pIC50: −log10 of the molar value. Several values for one entry are separate records, joined by “and”; a condition that tells them apart may be missing. Equal entries are not always repeated. Each block holds one compound with its values, some of them ahead of it.
Assays:
[1] = tested on: histone H2B Tyr37-phopshorylation (pY37-H2B); test: WEE1 epigenetic activity in cells: pY37-H2B immunoprecipitation/immunoblot; type: cell-based, human; conditions: for H2B Tyr37-phopshorylation: 10 μM, 24 hours (FIG. 7A)
Excerpt: FIGS. 2A-2B show identification of 3 distinct types of inhibitors. […] In addition, the lysates were also subjected to by immunoblotting with pY15-Cdc2 or actin antibodies (middle and bottom panels). […] The number vehicle treated cells were used as control and percent of surviving cells were plotted.
FIGS. 4A-4B show structures of ‘hits’ identified in WEE1 epigenetic inhibitor screen. […] The reaction mix was then subjected to immunoprecipitated with WEE1 antibodies, followed by immunoblotting with pTyr antibodies. […] In addition, the lysates were also subjected to immunoblotting with actin antibodies (bottom panel).
FIGS. 7A-7C show identification of WEIN-159 as a potent WEE1 epigenetic inhibitor. […] In addition, lysates were immunoprecipitated with pY37-H2B antibodies, followed by immunoblotting with H2B antibodies (middle panel). […] The lysates were also subjected to immunoblotting with pY15-Cdc2 antibodies and were immunoprecipitated with pY37-H2B antibodies, followed by immunoblotting with H2B antibodies (middle panels). In addition, the lysates were also subjected to immunoblotting with H2B antibodies (bottom panel). […] The lysates were also subjected to immunoblotting with pY15-Cdc2 antibodies and were immunoprecipitated with pY37-H2B antibodies, followed by immunoblotting with H2B antibodies (middle panels). In addition, the lysates were also subjected to immunoblotting with actin antibodies (bottom panel).
Identification of compounds with WEE1 epigenetic inhibitory role: 14 ‘hits’ that were identified in the screen are shown in FIG. 1. These compounds were further tested for their ability to inhibit WEE1 epigenetic activity. Prostate cancer derived LNCaP cells were treated with 3 uM of compounds for 48 hours. Cells were harvested, lysates were prepared, and WEE1 epigenetic activity was detected by determining histone H2B Tyr37-phopshorylation (pY37-H2B). Lysates were also assessed for WEE1 cell cycle inhibitory activity by determining Cdc2 Tyr15-phosphorylation (pY15-Cdc2). […] These are named as ‘Cell Cycle’ inhibitors. […] These compounds are the ‘Epigenetic’ inhibitors.

[2] = target: full length human WEE1 kinase (Homo sapiens, UniProt P30291); test: ELISA based assay: WEE1 phosphorylation of biotinylated H2B peptide spanning Tyr37; type: biochemical; parameters: A full length human WEE1 kinase that was enzymatically active was purified from insect cell; ELISA assay % Inhibition: concentration or dose not given beside the values; conditions: for ELISA assay % Inhibition: Table 3, No peptide = 100, No inhibitor = 0
full length human WEE1 kinase, sequence (P30291 whole entry): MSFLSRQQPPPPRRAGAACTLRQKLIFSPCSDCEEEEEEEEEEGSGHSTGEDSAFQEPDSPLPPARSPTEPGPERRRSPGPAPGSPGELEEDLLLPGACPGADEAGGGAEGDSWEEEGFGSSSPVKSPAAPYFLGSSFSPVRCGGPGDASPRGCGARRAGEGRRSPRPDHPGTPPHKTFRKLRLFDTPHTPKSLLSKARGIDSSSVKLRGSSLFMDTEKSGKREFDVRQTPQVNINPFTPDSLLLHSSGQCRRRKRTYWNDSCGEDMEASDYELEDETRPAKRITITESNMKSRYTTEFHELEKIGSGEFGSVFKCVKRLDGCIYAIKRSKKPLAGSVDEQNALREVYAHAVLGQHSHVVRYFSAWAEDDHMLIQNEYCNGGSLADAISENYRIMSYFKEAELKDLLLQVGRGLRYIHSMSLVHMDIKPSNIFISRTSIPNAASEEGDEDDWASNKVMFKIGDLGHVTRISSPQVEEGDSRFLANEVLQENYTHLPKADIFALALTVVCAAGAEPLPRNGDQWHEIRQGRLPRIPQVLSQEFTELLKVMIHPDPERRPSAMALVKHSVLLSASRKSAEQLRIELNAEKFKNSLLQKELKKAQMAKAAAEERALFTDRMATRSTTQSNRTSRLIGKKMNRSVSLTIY
Excerpt: Designing of a Novel inhibitor Screening Platform: […] A full length human WEE1 kinase that was enzymatically active was purified from insect cell. […] NCI diversity set compound library ( 1600 compounds) was used for the screening.

[3] = tested on: Cdc2 Tyr15-phosphorylation (pY15-Cdc2); test: WEE1 cell cycle inhibitory activity in cells: pY15-Cdc2 immunoblot; type: cell-based, human; conditions: for Cdc Tyr-phopshorylation: 10 μM, 24 hours (FIG. 7A)
Excerpt: FIGS. 2A-2B show identification of 3 distinct types of inhibitors. […] In addition, the lysates were also subjected to by immunoblotting with […]-Cdc2 or actin antibodies (middle and bottom panels). […] The number vehicle treated cells were used as control and percent of surviving cells were plotted. […] In addition, the lysates were also subjected to immunoblotting with actin antibodies (bottom panel). Identification of compounds with WEE1 epigenetic inhibitory role: 14 'hits' that were identified in the screen are shown in FIG. 1. These compounds were further tested for their ability to inhibit WEE1 epigenetic activity. Prostate cancer derived LNCaP cells were treated with 3 uM of compounds for 48 hours. […] Lysates were also assessed for WEE1 cell cycle inhibitory activity by determining Cdc2 Tyr15-phosphorylation ([…]-Cdc2). […] These are named as 'Cell Cycle' inhibitors. […] These compounds are the 'Epigenetic' inhibitors.

[4] = target: T1, Wee1 KD (Homo sapiens, UniProt P30291); test: Differential Scanning Fluorimetry (DSF), Wee1 KD; type: binding; conditions: kinase domain purified from HEK293T cells
T1 construct: WEE1 & WEE2 (as control) kinase domains from mammalian cells (HEK293T cells) were purified
T1 sequence (P30291 299-569): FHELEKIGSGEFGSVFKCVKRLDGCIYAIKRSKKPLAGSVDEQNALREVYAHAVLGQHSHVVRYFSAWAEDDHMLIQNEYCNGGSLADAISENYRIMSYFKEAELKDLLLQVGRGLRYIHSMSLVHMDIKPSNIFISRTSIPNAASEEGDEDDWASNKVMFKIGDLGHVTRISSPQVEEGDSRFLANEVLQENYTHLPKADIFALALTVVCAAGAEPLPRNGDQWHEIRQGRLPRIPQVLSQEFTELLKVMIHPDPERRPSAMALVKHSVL
Protocol: (§1) Binding study of WEE1 epigenetic inhibitors: To identify the precise binding region/domain of WEE1 epigenetic inhibitors, WEE1 & WEE2 (as control) kinase domains from mammalian cells (HEK293T cells) were purified. The binding of inhibitors was assessed using Differential Scanning Fluorimetry (DSF).

[5] = tested on: LNCaP cells; test: Cell cycle analysis by propidium iodide staining; type: cell-based, human; conditions: 16 hours
Protocol: To further validate this observation, LNCaP cells were treated with WEIN-159 and 172 for 16 hours and cell cycle analysis was performed by propidium iodide staining.

[6] = tested on: LAPC4 cells; test: LAPC4 cell proliferation, trypan blue exclusion assay; type: cell-based; conditions: Homo sapiens, 96 hr, viable cells by trypan blue exclusion
Excerpt: FIGS. 2A-2B show identification of 3 distinct types of inhibitors. […] In addition, the lysates were also subjected to by immunoblotting with […]-Cdc2 or actin antibodies (middle and bottom panels). […] The number vehicle treated cells were used as control and percent of surviving cells were plotted. […] The number of vehicle treated cells were used as control and percent of surviving cells were plotted. […] The number vehicle treated cells were used as control and percent of surviving cells were plotted. 7 of these epigenetic inhibitors in various assays such as cell proliferation assay, an in vitro kinase assay were performed and WEE1 autophosphorylation in vivo was determined. Prostate cancer derived LAPC4 cells were treated with inhibitors and its effect on cell proliferation was examined.

[7] = target: T2, Wee2 KD (Homo sapiens, UniProt P0C1S8); test: Differential Scanning Fluorimetry (DSF), Wee2 KD; type: binding; conditions: kinase domain purified from HEK293T cells
T2 construct: WEE1 & WEE2 (as control) kinase domains from mammalian cells (HEK293T cells) were purified
T2 sequence (P0C1S8 212-486): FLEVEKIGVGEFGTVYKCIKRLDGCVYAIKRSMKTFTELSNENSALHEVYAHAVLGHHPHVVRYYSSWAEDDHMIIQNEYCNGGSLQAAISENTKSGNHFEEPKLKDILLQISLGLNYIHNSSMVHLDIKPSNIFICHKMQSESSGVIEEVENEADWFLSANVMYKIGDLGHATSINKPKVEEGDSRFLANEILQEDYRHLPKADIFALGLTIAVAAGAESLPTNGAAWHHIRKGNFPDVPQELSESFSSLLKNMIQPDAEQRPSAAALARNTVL
Protocol: as §1

[8] = tested on: gamma-H2AX; test: DNA damage, gamma-H2AX immunoblot in LNCaP cells; type: cell-based, human; conditions: 3 μM, 12 hours (FIG. 3C)
Protocol: The reaction mix was then subjected to immunoprecipitated with WEE1 antibodies, followed by immunoblotting with pTyr antibodies (top panel). As a control, purified ACK1 protein was incubated in the reaction buffer containing ATP, in presence of 100 nM epigenetic inhibitors. The reaction mix was then subjected to immunoprecipitated with ACK1 antibodies, followed by immunoblotting with pTyr antibodies (bottom panel). […] In addition, the lysates were also subjected to immunoblotting with actin antibodies (bottom panel). […] In addition, the lysates were also subjected to immunoblotting with actin antibodies (bottom panel).
H2AX becomes phosphorylated on serine 139, called gamma-H2AX, is a marker of DNA damage as it localizes to sites of DNA strand breaks. This sensor then functions to trigger activation of the DNA damage response pathways. To assess whether any of the epigenetic inhibitors are potent DNA-damaging agents, cells were treated with the compounds followed by immunoblotting with gamma-H2AX antibodies.

[9] = tested on: WEE1; test: Endogenous WEE1 auto-phosphorylation in cells (WEE1 IP, pTyr immunoblot); type: cell-based, human; conditions: LNCaP and melanoma cell line B16, 10 μM, 24 hours (FIGS. 7B and C)
Protocol: The reaction mix was then subjected to immunoprecipitated with WEE1 antibodies, followed by immunoblotting with pTyr antibodies (top panel). As a control, purified ACK1 protein was incubated in the reaction buffer containing ATP, in presence of 100 nM epigenetic inhibitors. The reaction mix was then subjected to immunoprecipitated with ACK1 antibodies, followed by immunoblotting with pTyr antibodies (bottom panel). […] In addition, the lysates were also subjected to immunoblotting with actin antibodies (bottom panel). […] In addition, the lysates were also subjected to immunoblotting with actin antibodies (bottom panel). […] In addition, the lysates were also subjected to immunoblotting with actin antibodies (bottom panel). To determine direct binding of these compounds causing WEE1 inhibition, a full length WEE1 kinase protein was incubated with the compounds. […] These inhibitors were further validated by assessing their ability to suppress endogenous WEEE activity; LNCaP cells were treated with 10 μM of these compounds overnight.

[10] = tested on: global histone H3K18, H3K12 and H3K9 and H4K5 acetylation; test: Global histone acetylation after treatment; type: cell-based
Excerpt: FIGS. 15A-15B show restoration of H3K18 epigenetic marks by epigenetic inhibitor of WEE1 kinase.
FIGS. 16A-16D show restoration of H4K5 and H3K12 epigenetic marks by epigenetic inhibitor of WEE1 kinase.
Global upregulation of histone H3K18 and H3K12 acetylation upon WEIN-159 treatment: To further examine the effect of WEE1 inhibition, global histone H3K18, H3K12 and H3K9 and H4K5 acetylation was examined following WEIN-159 and WEIN-172 treatment. […] In contrast, H3K9 acetylation levels were not affected.

[11] = target: WEE1 (Homo sapiens, UniProt P30291); test: Pull-down assay with biotinylated inhibitor on streptavidin beads; type: binding; conditions: LNCaP cell lysates, WEE1 immunoblot (FIG. 11A)
WEE1 (Homo sapiens, UniProt P30291), sequence (P30291 whole entry): as the sequence (P30291 whole entry) above
Protocol: (§2) FIGS. 11A-11E show direct interaction between inhibitor and WEE1 kinase. […] FIGS. 11C-11E show biotinylated WEIN-159 and WEIN-172 immobilized onto streptavidin beads were incubated with lysates prepared from HEK293T cells transfected with MYC-tagged WEE1 deletion constructs, followed by immunoblotting with MYC antibodies.
(§3) Inhibitory activity of WEIN-159 and WEIN-172 was further validated by examining its direct-binding to WEE1 protein, using a pull-down assay. WEIN-159 and WEIN-172 were attached to biotin molecule (FIG. 10) and then immobilized onto streptavidin beads. Beads were incubated with cell lysate, washed and electrophoresed followed by immunoblottng with WEE1 antibodies.
(§4) To further identify region within WEE1 that may be involved in binding to inhibitor, a deletion strategy was employed wherein three deletions, A-WEE1, B-WEE1 and C-Wee1 were generated which were Myc-tagged (FIG. 11B). Constructs were transfected in HEK293T cells and lysates were incubated with biotin beads with bound WEIN-159 and 172.

[12] = tested on: WEE1 protein; test: as above; type: binding; conditions: lysates of transfected HEK293T cells (FIGS. 11C and D)
Protocol: as §2, §3, §4

[13] = tested on: global histone levels; test: Global histone expression, qRT-PCR; type: cell-based, human; conditions: LNCaP 5 or 10 uM 16 hr; LAPC4 3.5 uM 48 hr
Excerpt: FIGS. 8A-8B show inhibition of WEE1 epigenetic activity lead to increased global histone expression. […] Total RNA was isolated followed by qRT-PCR with histone H3 and actin primers. […] Total RNA was isolated followed by qRT-PCR with histone H3 and actin primers.
WEIN-159 and WEIN-172 were further assessed by treatment of LNCaP and melanoma cell line B16, followed by determination of WEE1, H2B and Cdc Tyr-phopshorylation.

[14] = LNCaP cells, 3 uM, 48 hours (FIG. 2A)
[15] = LNCaP and melanoma cell line B16, 10 μM, 24 hours (FIGS. 7B and C)

ELISA Inhibition (%) ([2]; Table 1, several values in a cell are repeat determinations): 46% and 55%
Compound: Nc1ccc(NC(=O)c2ccc(C(=O)Nc3ccc(N)cc3)o2)cc1 [SG5-111, N^2,N^5-bis(4-aminophenyl)furan-2,5-dicarboxamide]
H2B Tyr37-phopshorylation ([1]; LNCaP cells): almost complete loss of H2B Tyr37-phopshorylation
Cdc Tyr-phopshorylation ([3]; LNCaP cells): unaffected

ΔTm for Wee1 KD (° C.) [4]: 16.2 °C
ELISA assay % Inhibition [2]: 54%
ΔTm for Wee2 KD (° C.) [7]: 11.9 °C
Compound: C=CCn1c(=O)c2cnc(Nc3ccc(N4CCN(C)CC4)cc3)nc2n1-c1cccc(C(C)(C)O)n1 [AZD-1775, reference compound]
H2B Tyr37-phosphorylation (pY37-H2B) [1, 14]: loss of both H2B and Cdc2-phosphorylation
Cell Cycle Analysis G1 [5]: 56.51
Cell Cycle Analysis G2/M [5]: 4.27
Cell Cycle Analysis S [5]: 39.22
pIC50 [6]: 6.46
DNA damage (gamma-H2AX) [8]: intensified double-strand DNA breakage
Cdc2 Tyr15-phosphorylation (pY15-Cdc2) [3, 14]: loss of both H2B and Cdc2-phosphorylation

ELISA assay % Inhibition [2]: 112%
binding of WEE1 protein to biotinylated inhibitor on streptavidin beads [11]: to lesser extent
Compound: Cl.Nc1cccc(NC(=O)c2ccc(C(=O)Nc3cccc(N)c3)s2)c1 [WEIN-172]
H2B Tyr-phopshorylation [1, 15]: significant loss of WEE1 and H2B Tyr-phopshorylation
H2B Tyr37-phopshorylation ([1]; LNCaP cells): almost complete loss of H2B Tyr37-phopshorylation
WEE1 Tyr-phopshorylation [9]: significant loss of WEE1 and H2B Tyr-phopshorylation
Cell Cycle Analysis G1 [5]: 56.53
Cell Cycle Analysis G2/M [5]: 16.29
Cell Cycle Analysis S [5]: 27.18
H3K9 acetylation levels [10]: not affected
H3K18 acetylation ([10]; FIG. 15): significant increase in H3K18 acetylation
H3K12 acetylation ([10]; FIGS. 16 A and B): significant increase
H4K5 acetylation ([10]; FIGS. 16A and C): significant increase
binding to MYC-tagged WEE1 deletion constructs [12]: only full length WEE1 interacted with inhibitor
Cdc Tyr15-phopshorylation [3, 15]: remained unaffected
Cdc Tyr-phopshorylation ([3]; LNCaP cells): unaffected
global histone levels (real time PCR of H3 and H2B) [13]: significant increase in global histone levels
